Experimental findings from US10179770B2, “Quinolines derivatives as novel anticancer agents” (GENOSCIENCE PHARMA, priority 2013, dated 2019) are described below.

One may read the viability as a per cent measure of how many cells are alive, often set against a control.

Structures are written as SMILES. Where a name gives a salt, the structure may show the parent alone. Read-outs that look alike come from different tables or passages of the source.

Common to all, as to test: Cell proliferation assay at 10 μM
For series [1], the system named is A375. The format is cell-based, human. The following applies: for viability at 10 µM: Homo sapiens, read-out: Cell viability observed at 10 μM. How it is done:
(§1) The human melanoma cell line A375 and colorectal carcinoma cell line HCT-116 were cultured in Dulbecco's modified Eagle's medium supplemented with 10% fetal bovine serum and 1% Penicillin-Streptomycin. The human leukemia cell line MOLM-14 was cultured in Minimum Essential Medium Alpha Medium supplemented with 10% Fetal Bovine Serum and 1% Penicillin-Streptomycin. All the cell lines were maintained at 37° C. with 5% CO2.
(§2) Briefly, adherent cells, A375 and HCT-116 cells were respectively plated at 800 or 5,000 cells per well onto 96-well plates in 90 μL of media per well and were allowed to grow overnight before the assay.
(§3) Compounds were added at different concentrations to each well, and cell cultures were incubated for 72 h. Vehicle (DMSO or H2O) was used as a control, and all compounds were tested in a constant percentage of vehicle. Cell outgrowth was measured using for adherent cells CellTiter […] Aqueous One Solution Cell Proliferation Assay (Promega) and for cell suspension, Sulforhodamine B colorimetric assay as described in Vichai et al. (Vichai, V. and Kirtikara, K. Nat. Protoc. 2006 (1) 1112-1116). Absorbance was measured using an Infinite F200 Pro or Sunrise TECAN plate reader.
(§4) In each experiment, each point represents the average of two replicates in cell culture.
(§5) Results are presented in Table 1 below for concentrations of 10 μM of tested compounds.

Series [2] has as its system HCT-116. The format is cell-based. The following applies: Homo sapiens, HCT-116, 72 h. How it is done: as §1, §2, §3, §4, §5
In series [3] the test system is MOLM-14. The format is cell-based, human. The following applies: for viability at 10 µM: Homo sapiens, read-out: Cell viability observed at 10 μM. How it is done:
as §1
For MOLM-14 cell line, which grows in suspension, 30,000 cells were plated onto 96-well plates immediately before the assay.
as §3, §4, §5

The mark [4] stands for this setting: read-out: Cell viability observed at 10 μM.
Setting [5] is: A-375, A375, 10 μM, 72 h, % of cell viability remaining.
[6] abbreviates: HCT-116, 10 μM, 72 h, % of cell viability remaining, read-out: Cell viability observed at 10 μM.
Setting [7] is: MOLM-14, 10 μM, 72 h, % of cell viability remaining.
Setting [8] is: A375, 10 μM, 72 h, % of cell viability remaining.

Consider `CCN(CC)C1CCN(Cc2cc(-c3ccccc3)nc3ccccc23)CC1` [XX-5, 2-phenyl-4-[4-(N,N-diethylamino)-piperidin-1-ylmethyl]quinoline dihydrochloride], for which the viability at 10 µM in series [1] (A-375, 72 h) is 60 to 80%; in series [2] (setting [4]), > 80%; in series [3] (MOLM-14, 72 h), 40 to 60%.

Regarding `CC(c1cc(-c2ccccc2)nc2ccccc12)N1CCC(N(CCc2ccccc2)Cc2ccccc2)CC1` (stereo not shown) [XXI-4, 2-phenyl-4-{1-{4-[benzyl(phenethyl)amino]-piperidin-1-yl}-eth-1-yl}quinoline dihydrochloride], the viability at 10 µM was > 80% in series [1] (A-375, 72 h); > 80% in series [2] (setting [4]); > 80% in series [3] (MOLM-14, 72 h).

In the case of `CN(C)CCCNCc1cc(-c2ccccc2)nc2cc(Cl)ccc12` [XLIV-2, N^1,N^1-dimethyl-N^3-(7-chloro-2-phenylquinoline-4-ylmethyl)-propane-1,3-diamine hydrochloride salt], the viability at 10 µM in series [1] (A-375, 72 h) is < 20%; in series [2] (setting [4]), < 20%; in series [3] (MOLM-14, 72 h), < 20%.

For `CN(c1cc(-c2ccccc2)nc2cc(Cl)ccc12)C1CCN(Cc2ccccc2)CC1` [XXIX-2, 7-chloro-2-phenyl-4-[N-methyl-N—(N-benzylpiperidin-4-yl)-amino]quinoline hydrochloride salt], the viability at 10 µM in series [1] (setting [5]), in series [2] (setting [6]) and in series [3] (setting [7]) was > 80% each time.

Consider `CC(c1ccccc1)N1CCC(N(C)c2cc(-c3ccccc3)nc3ccccc23)CC1` (stereo not shown) [XXXI-2, 2-phenyl-4-[N-methyl-N—(N-1-phenylethyl-piperidin-4-yl)-amino]quinoline hydrochloride salt], for which the viability at 10 µM in series [1] (setting [5]), in series [2] (setting [6]) and in series [3] (setting [7]) was > 80% throughout.

Turning to `CN(C)CCCNC(=O)c1cc(-c2ccccc2)nc2cc(Cl)ccc12` [XLIII-2, N-[3-(dimethylamino)propyl]-7-chloro-2-phenylquinoline-4-carboxamide hydrochloride salt], the viability at 10 µM in series [1] (A-375, 72 h) was < 20%; in series [2] (setting [4]), > 80%; in series [3] (MOLM-14, 72 h), 60 to 80%.

For the molecule `c1ccc(-c2cc(N3CCC(N4CCOCC4)CC3)c3ccccc3n2)cc1` [Compound V-2, 2-phenyl-4-[(4-morpholin-4-yl)piperidin-1yl]quinoline dihydrochloride], the viability at 10 µM in series [1] (A-375, 72 h) is > 80%; in series [2] (setting [4]), > 80%; in series [3] (MOLM-14, 72 h) it was 60 to 80%.

Turning to `CCN(CC)C1CCN(c2cc(-c3ccc(Br)cc3)nc3ccccc23)CC1` [VIII-6, 2-(4-bromo-phenyl)-4-(4-N,N-diethylamino-piperidin-1-yl)-quinoline dihydrochloride], the viability at 10 µM in series [1] (A-375, 72 h) was < 20%; in series [2] (setting [6]), < 20%; in series [3] (MOLM-14, 72 h) it was 20 to 40%.

Regarding `O=C(NC1CCN(Cc2ccccc2)CC1)c1cc(-c2ccccc2)nc2cc(Cl)ccc12` [XXXII-2, N-(1-benzylpiperidin-4-yl)-7-chloro-2-phenylquinoline-4-carboxamide hydrochloride salt], the viability at 10 µM is > 80% in series [1] (A-375, 72 h); > 80% in series [2] (setting [4]); 40 to 60% in series [3] (MOLM-14, 72 h).

In the case of `CCN(CC)CC1CCN(c2cc(-c3ccccc3)nc3cc(Cl)ccc23)CC1` [XXVI-4, 7-chloro-2-phenyl-4-[4-(N,N-diethylaminomethyl)-piperidin-1-yl]-quinoline hydrochloride salt], the viability at 10 µM in series [1] (A-375, 72 h) was > 80%; in series [2] (setting [4]), > 80%; in series [3] (MOLM-14, 72 h), > 80%.

For `CN(C)CCN(C)Cc1cc(-c2ccccc2)nc2cc(Cl)ccc12` [XXXVIII-2, N^1,N^1,N^2-trimethyl-N^2-(2-phenyl-7-chloro-quinoline-4-ylmethyl)-ethane-1,2-diamine hydrochloride salt], the viability at 10 µM in series [1] (A-375, 72 h) was < 20%; in series [2] (setting [4]) it was < 20%; in series [3] (MOLM-14, 72 h), 40 to 60%.

As to `CN(C)CCCN(C)c1cc(-c2ccc3ccccc3c2)nc2ccccc12` [XXXIX-2, N^1,N^1,N^3-trimethyl-N^3-[2-(naphthalen-2-yl)-quinoline-4-yl]-propane-1,3-diamine hydrochloride salt], the viability at 10 µM in series [1] (A-375, 72 h) was < 20%; in series [2] (setting [4]), < 20%; in series [3] (MOLM-14, 72 h), < 20%.

Regarding `CN(C)CCN(C)c1cc(-c2ccc3ccccc3c2)nc2ccccc12` [XXXVII-2, N^1,N^1,N^2-trimethyl-N^2-(2-naphthalen-2-yl-quinoline-4-yl)-ethane-1,2-diamine hydrochloride salt], the viability at 10 µM was 40 to 60% in series [1] (A-375, 72 h); > 80% in series [2] (setting [4]); 40 to 60% in series [3] (MOLM-14, 72 h).

Consider `CC(NC1CCN(Cc2ccccc2)CC1)c1cc(-c2ccccc2)nc2ccccc12` (stereo not shown) [XXXIV-2, 2-phenyl-4-{1-[(N-benzyl-piperidin-4-yl)amino]-eth-1-yl}quinoline hydrochloride salt], for which the viability at 10 µM in series [1] (A-375, 72 h) is < 20%; in series [2] (setting [4]), 20 to 40%; in series [3] (MOLM-14, 72 h) it was 40 to 60%.

Turning to `CCN(CC)C1CCN(c2cc(-c3ccccc3)nc3ccccc23)CC1.Cl.Cl` [Compound I-4, 2-phenyl-4-(4-N,N-diethylamino-piperidin-1-yl)quinoline dihydrochloride], the “Cell viability observed at 10 μM” value in series [1] (setting [8]) was “− (cell viability %>80)”; in series [3] (setting [7]) it was “+ (cell viability 60>%<80)”.

For the molecule `CCN(CC)C1CCN(c2cc(-c3ccccc3)nc3cc(Cl)ccc23)CC1` [II-4, 7-chloro-2-phenyl-4-(4-N,N-diethylamino-piperidin-1-yl)quinoline dihydrochloride], the viability at 10 µM was < 20% in series [1] (A-375, 72 h); 20 to 40% in series [2] (setting [4]); 60 to 80% in series [3] (MOLM-14, 72 h).

With `CCN(CC)CC1CCN(c2cc(-c3ccccc3)nc3ccccc23)CC1` [XXVII-2, 2-phenyl-4-[4-(N,N-diethylaminomethyl)-piperidin-1-yl)quinoline hydrochloride salt], the viability at 10 µM is 20 to 40% in series [1] (A-375, 72 h); > 80% in series [2] (setting [4]); 40 to 60% in series [3] (MOLM-14, 72 h).

Turning to `CCN(CC)C1CCN(c2cc(-c3ccc(Cl)cc3)nc3ccccc23)CC1` [Compound X-6, 2-(4-chloro-phenyl)-4-(4-N,N-diethylamino-piperidin-1-yl)quinoline dihydrochloride], the viability at 10 µM is < 20% in series [1] (A-375, 72 h); < 20% in series [2] (setting [4]); 40 to 60% in series [3] (MOLM-14, 72 h).

Turning to `CC(c1ccccc1)N1CCC(N(C)c2cc(-c3ccccc3)nc3cc(Cl)ccc23)CC1` (stereo not shown) [XXX-2, 7-chloro-2-phenyl-4-[N-methyl-N—(N-1-phenylethyl-piperidin-4-yl)-amino]quinoline], the viability at 10 µM in series [1] (A-375, 72 h) was > 80%; in series [2] (read-out: Cell viability observed at 10 μM, HCT-116, 10 μM, 72 h, % of cell viability remaining), > 80%; in series [3] (MOLM-14, 72 h), 60 to 80%.

As for `CCN(CC)C1CCN(C(=O)c2cc(-c3ccccc3)nc3ccccc23)CC1` [XVIII-2, 4-[4-(N,N-diethylamino)piperidin-1-ylcarbonyl]-2-phenyl-quinoline dihydrochloride], the viability at 10 µM in series [1] (setting [5]), in series [2] (setting [6]) and in series [3] (setting [7]) was > 80% in each case.

As for `CCN(CC)C1CCN(c2cc(-c3ccc4ccccc4c3)nc3ccccc23)CC1` [VI-6, 2-(2-naphtyl)-4-(4-N,N-diethylamino-piperidin-1-yl)quinoline dihydrochloride], the viability at 10 µM in series [1] (A-375, 72 h) was < 20%; in series [2] (setting [4]), < 20%; in series [3] (MOLM-14, 72 h) it was < 20%.

For `CC(C)(C)NC1CCN(c2cc(-c3ccccc3)nc3ccccc23)CC1` [IV-2, 2-phenyl-4-(4-N-tert-butylamino-piperidin-1-yl)quinoline dihydrochloride], the viability at 10 µM in series [1] (A-375, 72 h) lay within 40 to 60%; in series [2] (setting [4]), 60 to 80%; in series [3] (MOLM-14, 72 h) it was 20 to 40%.

Turning to `CCN(CC)C1CCN(c2cc(-c3ccccc3)nc3ccccc23)CC1` [Compound I-3, 2-phenyl-4-(4-N,N-diethylamino-piperidin-1-yl)quinoline], the viability at 10 µM in series [1] (setting [5]) was > 80%; in series [2] (setting [6]), > 80%; in series [3] (setting [7]) it was 60 to 80%.

As to `CN(C)CCCNc1cc(-c2ccccc2)nc2ccccc12.Cl.Cl` [XLI-2, N^1,N^1-dimethyl-N^3-(2-phenylquinoline-4-yl)propane-1,3-diamine hydrochloride salt], the “Cell viability observed at 10 μM” value in series [1] (setting [8]) and in series [3] (setting [7]) was “++++ (cell viability %<20)” throughout.
